Laboratory results taken from patent publication US6383521B1, “Wondonin A and process for preparing the same” (Korea Ocean Research and Development, priority 2000, dated 2002).

Key:
[1] = test system: chick embryo chorioallantoic membrane; test: Chick embryo chorioallantoic membrane assay; format: in vivo; settings: ratio of embryos with avascular zone to total embryos; cover slip on CAM, 2 days incubation
Procedure: On day 3.5, a part of egg shell was cracked gently, and on day 4.5, a cover slip containing Wondonin A (prepared by drying […] Wondonin A in methanol on a cover slip) or a control cover slip (prepared by drying 2 μl of methanol on a cover slip) was placed on the chorioallantoic membrane (CAM) through the crack and then the crack was sealed. After incubation for 2 days, 10% fat emulsion was injected to CAM, which was examined under a microscope. The embryos with a clear avascular zone (inhibition of angiogenesis) were counted and inhibitory effect of Wondonin A on angiogenesis was evaluated by calculating the ratio of the number of embryo with avascular zone to the total number of embryo tested (see: Table 2).

[2] = test system: Human umbilical vascular endothelial cells (HUVEC); test: Invasion assay of HUVEC through Matrigel/Type IV collagen coated filter; format: cell-based; settings: 10 μg/ml Wondonin A medium, bFGF, 18 hours
Procedure: Powdered medium 199 (M 199, Sigma Chemical Co., U.S.A.) and 2.2 g (per liter) of sodium bicarbonate was dissolved in double distilled water, pH of the medium was adjusted to 7.2 with HCl, and followed by sterile filtration on a […] Millipore filter. Then, a medium was finally prepared by supplementing, just before use, with 20% (w/v) FBS (fetal bovine serum ), 1% (w/v) Penicillin-Streptomycin (P-S), 3 ng/ml bFGF (basic fibroblast growth factor, a growth factor for angiogenesis) and 100 μg/ml heparin. Human umbilical vascular endothelial cells (“HUVEC”) purchased from ATCC (American Type Culture Collection) were seeded to 6 ml of the medium thus prepared in a T25 flask (25 cm^2) and grown to form a monolayer in an incubator at 37° C. under an environment of 5% (v/v) CO2 and saturated humidity, and then subcultured in a medium containing 0.05% (w/v) Trypsin-EDTA.
For invasion assay, lower surface of the polycarbonate filter (pore size: 8 μm) equipped in an insert chamber was coated with 5 μg of Type IV collagen and upper surface of the filter was coated with 25 μg of Matrigel (Collaborative Research, Inc., Waltham, Mass., U.S.A.). […] After staining of the fixed cells with haematoxillin and eosin, Matrigel was detached from the filter and HUVEC cells which have passed through the filter were counted. […]

[3] = Physicochemical data of Wondonin A
Source text: The spectrophotomeric data of Wondonin A are as follows: […]

[4] = test system: vascular endothelial cells; test: Viability of vascular endothelial cells (Trypan Blue); format: cell-based, Human; settings: 48 hour incubation, medium without FBS
Procedure: Vascular endothelial cells grown on Example 3 were placed onto a 24-well plate with 5×10^4 cells/well starting cell number in 1 ml (per well) of the same medium as in Example 3 except for containing 10% (v/v) FBS, and incubated at 37° C. under an environment of 5% (v/v) CO2 for 24 hours to the level of 80% cell confluency. Then, cells were rinsed with 1 ml of PBS and 1 ml of the same medium without FBS was added and then Wondonin A was added to reach the concentrations of […], respectively. After 48 hour incubation, medium was removed and cells were harvested by trypsinization. Cells were stained in a medium containing 0.4% (w/v) Trypan Blue at room temperature and then counted with haemacytometer. The cell viability was assessed based on total cell number and stained cell number (see: Table 1).

## CN(C)CCc1cn(C(c2ccc(O)c(O)c2)C2Oc3ccc(/C=C/OS(=O)(=O)[O-])cc3O2)cn1.[Na+] (stereo not drawn) [Wondonin A]
[1]
  Inhibition of angiogenesis (%): 89%
[2]
  reduction in a cell number passed through the filter compared to the control group: 66%
[3]; methanol and dimethylsulfoxide
  solubility in polar organic solvents: highly soluble
[3]; pale-yellow semi-solid at room temperature
  stability: stable
[4]; Wondonin A 1 μg/ml
  Viability (%): 98%
[4]; Wondonin A 10 μg/ml
  Viability (%): 97%
